Test [1] has as its system IMR90. Kind of test: MTT cytotoxicity test (GI50). Format: cell-based. Conditions: Homo sapiens, IMR-90; IMR90, normal, lung; MTT 72 h. Background: Formazan colour is commonly taken as a measure of viable cells.
Test [2] relates to DLD1. Kind of test: MTT cytotoxicity test (GI50). Conditions: Homo sapiens, DLD-1; DLD1, cancer, colon; MTT 72 h. Format: cell-based.
Test [3] relates to MKN45. Kind of test: MTT cytotoxicity test (GI50). Format: cell-based. Conditions: Homo sapiens, MKN-45; MKN45, cancer, gastric; MTT 72 h.
Test [4] addresses T1, Isoform 3 of Cleavage and polyadenylation specificity factor subunit 7 (Homo sapiens, UniProt Q8N684).
T1 construct: After collecting data covering >8,000 proteins in lysates of normal BJ cells; endogenous in cells; host or cells: normal BJ cells, lysate
Kind of test: MS-CETSA in normal BJ cell lysates. The class given is binding. Conditions: Uniprot Q8N684-3, lysate, 100 μM compound.
Protocol: Target identification was performed by cellular thermal shift assay (CETSA) coupled with quantitative mass spectrometry. In brief, normal BJ cells were lysed by combination of freeze/thaw and mechanical shearing with needle in buffer [50 mM HEPES (pH 7.5), 5 mM β-glycerophosphate, 0.1 mM Sodium Vanadate, 10 mM MgCl2, 1 mM TCEP and 1× Protease inhibitor Cocktail]. The cell debris was removed by centrifugation at 20,000 g for 20 min at 4° C. […] Each lysate was divided into 10 aliquots for heat treatment at the respective temperatures for 3 min in a 96-well thermocycler, followed by 3 min at 4° C. The lysate was centrifuged at 20,000 g for 20 min at 4° C. and the supernatant was transferred into microtubes for MS sample preparation.
After lysis, at least 100 μg of the protein (measured with a BCA assay) was subjected to reduction, denaturation and alkylation. Samples were subsequently incubated with sequencing grade LysC (Wako) and trypsin (Promega) for digestion overnight at 37° C. The digested samples were dried using a centrifugal vacuum evaporator, solubilized in 100 mM TEAB. […]
Proteins for which a low temperature plateau was not present were deleted using a cut off >0.85 for the average reading of the first three temperature points (in our experience proteins melting already at −37° C. are more prone to give false positives in a shift analysis).

The test system of test [5] is transformed BJ cells. Briefly: Time-lapse live-cell imaging and immunofluorescence of mitosis. Format: cell-based, human. Conditions: 2.5 μM. On the procedure: For immunofluorescence analysis, cells grown on coverglass-bottom chamber slides (Lab-Tek) were fixed with 4% PFA (paraformaldehyde) for 15 min at 25° C. The fixed cells were permeabilized with 0.5% Triton X-100 and exposed to TBS containing 0.1% Triton X-100 and 2% BSA (AbDil). The following primary antibodies were diluted in PBS containing 1% BSA and 0.1% Triton X-100: anti-γ-tubulin (Sigma-Aldrich, #T6557; 1:1000) and anti-β-tubulin (Abcam, #ab18207; 1:2000). Isotype-specific secondary antibodies (1:500 dilution) coupled to Alexa Fluor 488, 594, or Cy5 (Molecular Probes) were used. Cells were counterstained with DAPI (Thermo Scientific). Images were acquired at RT with 3D-SIM mode using a Super Resolution Microscope (Nikon) equipped with an iXon EM+885 EMCCD camera (Andor) mounted on a Nikon Eclipse Ti-E inverted microscope with a CFI Apo TIRF (100×/1.40 oil) objective and processed with the NIS-Elements AR software. For time-lapse live-cell analysis, a Stage Top Incubator with Digital CO2 mixer (Tokai) was used, and images were acquired at 37° C.

Test [6] deals with NUGC3. Briefly: MTT cytotoxicity test (GI50). The class given is cell-based. Conditions: Homo sapiens, NUGC-3; NUGC3, cancer, gastric; MTT 72 h.
For test [7], the system named is HT29. Briefly: MTT cytotoxicity test (GI50). The class given is cell-based. Conditions: Homo sapiens, HT-29; HT29, cancer, colon; MTT 72 h.

Consider one compound from patent publication US20190350964A1, “ANTI-CANCER COMPOUNDS AND USES THEREOF” (NATIONAL UNIVERSITY OF SINGAPORE, priority 2016, published 2019).

Molecules are shown by their SMILES.

T1 sequence (Q8N684 1-514 isoform Q8N684-3): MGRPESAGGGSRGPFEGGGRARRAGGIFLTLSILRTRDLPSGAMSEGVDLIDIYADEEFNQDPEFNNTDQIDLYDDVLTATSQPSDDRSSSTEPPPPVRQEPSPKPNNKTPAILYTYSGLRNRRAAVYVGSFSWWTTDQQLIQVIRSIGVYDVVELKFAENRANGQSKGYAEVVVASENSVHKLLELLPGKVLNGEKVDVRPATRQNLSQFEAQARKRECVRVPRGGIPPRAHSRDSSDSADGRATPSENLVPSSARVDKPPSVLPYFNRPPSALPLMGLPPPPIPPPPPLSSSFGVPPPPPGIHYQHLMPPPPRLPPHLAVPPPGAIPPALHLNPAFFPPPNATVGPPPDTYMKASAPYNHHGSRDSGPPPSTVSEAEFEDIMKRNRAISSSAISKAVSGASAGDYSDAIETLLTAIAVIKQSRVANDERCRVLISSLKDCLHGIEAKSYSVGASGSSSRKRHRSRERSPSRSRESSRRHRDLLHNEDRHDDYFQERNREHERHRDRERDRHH

As for `N#C/C(=C\c1cccc2cnccc12)c1c[nH]c2ccccc12` [a131, (Z)-2-(1H-indol-3-yl)-3-(5-isoquinolyl)prop-2-enenitrile], the GI50 in test [1] came to 5.8 µM; in test [2] it was 1.2 µM; in test [3], 1 µM; in test [6], 1 µM; in test [7], 0.9 µM. Also, the ED score in test [4] was 0.3008. Moreover, the “mean Delta Tm” value in test [4] (in °C (unit assumed)) amounted to 1.653. Also, the “mitotic arrest (time-lapse analysis)” value in test [5] is “immediately induced mitotic arrest in transformed BJ cells”. Further, the “centrosome de-clustering and multipolar mitotic spindles” value in test [5] (32 h) was “caused de-clustered centrosomes and multipolar mitotic-spindles in transformed BJ”.

The term GI50 denotes the concentration at which growth is held to half of that of the control. Read a high GI50 as less potent growth inhibition.
